Test results: ChEMBL document CHEMBL5143600, “Discovery and optimization of betulinic acid derivatives as novel potent CD73 inhibitors” (Bioorg Med Chem, 2022)
The source made the active and inactive calls. The rule behind the calls is not given here.

Columns and labels:
5'-nucleotidase [1] = target: T1, 5'-nucleotidase (Homo sapiens, UniProt P21589); experiment: (§1) Inhibition of human CD73 assessed as reduction in inorganic phosphate release upon substrate hydrolysis using AMP[…] as substrate incubated for 1 hr followed by substrate addition and measured after 2 hrs by malachite green reagent based colorimetric assay
5'-nucleotidase [2] = target: T2, 5'-nucleotidase (Mus musculus, UniProt Q61503); experiment: Inhibition of mouse CD73 assessed as reduction in inorganic phosphate release upon substrate hydrolysis using AMP[…] as substrate incubated for 1 hr followed by substrate addition and measured after 2 hrs by malachite green reagent based colorimetric assay
T2 sequence (Q61503 whole entry): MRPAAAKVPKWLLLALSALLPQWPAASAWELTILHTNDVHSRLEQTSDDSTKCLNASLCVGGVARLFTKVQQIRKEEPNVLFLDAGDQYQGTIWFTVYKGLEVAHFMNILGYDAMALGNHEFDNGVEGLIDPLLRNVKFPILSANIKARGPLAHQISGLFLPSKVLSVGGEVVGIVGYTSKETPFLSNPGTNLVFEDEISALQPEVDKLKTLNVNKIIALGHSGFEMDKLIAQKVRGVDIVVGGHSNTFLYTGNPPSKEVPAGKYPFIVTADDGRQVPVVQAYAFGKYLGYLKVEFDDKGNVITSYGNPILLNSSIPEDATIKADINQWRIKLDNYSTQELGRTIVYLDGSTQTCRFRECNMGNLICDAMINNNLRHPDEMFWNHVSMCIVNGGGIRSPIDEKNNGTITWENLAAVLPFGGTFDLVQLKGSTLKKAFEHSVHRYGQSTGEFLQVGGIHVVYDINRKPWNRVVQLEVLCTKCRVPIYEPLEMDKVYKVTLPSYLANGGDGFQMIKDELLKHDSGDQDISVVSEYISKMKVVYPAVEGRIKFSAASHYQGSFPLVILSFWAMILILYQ

CD4+ve Th = experiment: Induction of anti-CD3/CD28 antibodies-stimulated CD4-positive Th cell activation in C57BL/6J mouse assessed as reversal of AMP/EHNA-inhibited IFN-gamma production at 10 uM preincubated for 15 mins followed by AMP/EHNA addition and measured after 96 hrs by ELISA; assay type: functional, cell-based; details: time 5775.0 min
MIA PaCa-2 = experiment: Cytotoxicity against human MIA PaCa-2 cells assessed as inhibition of cell growth incubated for 72 hrs by CCK-8 assay; assay type: functional, cell-based; details: MIA PaCa-2, 72 h
MDA-MB-231 = experiment: Cytotoxicity against human MDA-MB-231 cells assessed as inhibition of cell growth incubated for 72 hrs by CCK-8 assay; assay type: functional, cell-based; details: MDA-MB-231, 72 h
5'-nucleotidase [3] = target: T1, 5'-nucleotidase; experiment: as §1, with “Potency index, ratio of betulinic acid IC50 to test compound IC50 for inhibition” for “Inhibition”; details: time 3.0 hrs
[4] = Selectivity index, ratio of IC50 for inhibition of mose CD73 to IC50 for inhibition of human CD73

T1 sequence (P21589 whole entry): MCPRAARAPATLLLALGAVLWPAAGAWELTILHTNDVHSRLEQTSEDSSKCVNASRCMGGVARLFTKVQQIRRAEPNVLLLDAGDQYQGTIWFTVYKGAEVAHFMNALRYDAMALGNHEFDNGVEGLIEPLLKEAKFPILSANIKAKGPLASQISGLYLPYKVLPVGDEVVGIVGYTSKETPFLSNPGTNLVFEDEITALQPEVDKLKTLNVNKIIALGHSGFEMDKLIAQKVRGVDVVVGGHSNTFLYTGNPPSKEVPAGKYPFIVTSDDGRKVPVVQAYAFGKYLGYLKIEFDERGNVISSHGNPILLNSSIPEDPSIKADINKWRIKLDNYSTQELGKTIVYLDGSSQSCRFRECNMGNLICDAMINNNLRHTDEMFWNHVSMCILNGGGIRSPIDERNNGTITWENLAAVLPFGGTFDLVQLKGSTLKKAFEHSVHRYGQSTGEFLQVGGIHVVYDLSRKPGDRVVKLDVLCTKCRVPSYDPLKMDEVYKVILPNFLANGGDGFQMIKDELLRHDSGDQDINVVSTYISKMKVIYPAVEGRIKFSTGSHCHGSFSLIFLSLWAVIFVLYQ

| Structure (SMILES) | IC50 (5'-nucleotidase [1]) [µM] | IC50 (5'-nucleotidase [2]) [µM] | other results |
| --- | --- | --- | --- |
| C=C(C)[C@@H]1CC[C@]2(C(=O)O)CC[C@]3(C)[C@H](CC[C@@H]4[C@@]5(C)CC[C@H](OC(=O)N6CCC(N)CC6)C(C)(C)[C@@H]5CC[C@]43C)[C@@H]12 | > 100 | > 100 | – |
| Nc1ncnc2c1ncn2[C@@H]1O[C@H](COP(=O)(O)CP(=O)(O)O)[C@@H](O)[C@H]1O | – | – | Activity (CD4+ve Th): Active |
| C=C(C)[C@@H]1CC[C@]2(C(=O)O)CC[C@]3(C)[C@H](CC[C@@H]4[C@@]5(C)CCC(=O)C(C)(C)[C@@H]5CC[C@]43C)[C@@H]12 [BETUNOLIC ACID] | 43.3 | – | – |
| C=C(C)[C@@H]1CC[C@]2(C=O)CC[C@]3(C)[C@H](CC[C@@H]4[C@@]5(C)CC[C@H](O)C(C)(C)[C@@H]5CC[C@]43C)[C@@H]12 [BETULINALDEHYDE] | > 100 | – | – |
| Nc1ccn([C@@H]2O[C@H](CO)[C@@H](O)C2(F)F)c(=O)n1 [GEMCITABINE] | – | – | IC50 (MIA PaCa-2): 0.36 µM; IC50 (MDA-MB-231): 2.22 µM |
| C=C(C)[C@@H]1CC[C@]2(C(=O)O)CC[C@]3(C)[C@H](CC[C@@H]4[C@@]5(C)CC[C@H](OC(=O)N6CCCC6)C(C)(C)[C@@H]5CC[C@]43C)[C@@H]12 | > 100 | > 100 | – |
| C=C(C)[C@@H]1CC[C@]2(C(=O)O)CC[C@]3(C)[C@H](CC[C@@H]4[C@@]5(C)CC[C@H](OC(=O)NC(C)C)C(C)(C)[C@@H]5CC[C@]43C)[C@@H]12 | 5.69 | 59 | Ratio IC50 (5'-nucleotidase [3]): 1.3; Ratio IC50 [4]: 10.4; IC50 (MIA PaCa-2): 77.2 µM; IC50 (MDA-MB-231): > 100 µM |
| C=C(C)[C@@H]1CC[C@]2(C(=O)O)CC[C@]3(C)[C@H](CC[C@@H]4[C@@]5(C)CC[C@H](OC(=O)NCCN6CCOCC6)C(C)(C)[C@@H]5CC[C@]43C)[C@@H]12 | > 100 | > 100 | – |
| C=C(C)[C@@H]1CC[C@]2(C(=O)O)CC[C@]3(C)[C@H](CC[C@@H]4[C@@]5(C)CC[C@H](OC(=O)NCCO)C(C)(C)[C@@H]5CC[C@]43C)[C@@H]12 | 37.2 | > 100 | – |
| C=C(C)[C@@H]1CC[C@]2(C(=O)O)CC[C@]3(C)[C@H](CC[C@@H]4[C@@]5(C)CC[C@H](OC(=O)N6CC(O)C6)C(C)(C)[C@@H]5CC[C@]43C)[C@@H]12 | > 100 | > 100 | – |
| C=C(C)[C@@H]1CC[C@]2(C(=O)O)CC[C@]3(C)[C@H](CC[C@@H]4[C@@]5(C)CC[C@H](O)[C@@](C)(CO)[C@@H]5CC[C@]43C)[C@@H]12 | > 100 | – | – |
| C=C(C)[C@@H]1CC[C@]2(C(=O)O)CC[C@]3(C)[C@H](CC[C@@H]4[C@@]5(C)CC[C@H](OC(=O)NC6CC6)C(C)(C)[C@@H]5CC[C@]43C)[C@@H]12 | 81.4 | > 100 | – |
| C=C(C)[C@@H]1CC[C@]2(C(=O)O)CC[C@]3(C)[C@H](CC[C@@H]4[C@@]5(C)CC[C@H](O)C(C)(C)[C@@H]5CC[C@]43C)[C@@H]12 [BETULINIC ACID] | 7.28 | 68.8 | IC50 (MIA PaCa-2): 26.7 µM; IC50 (MDA-MB-231): 19.1 µM; Activity (CD4+ve Th): Active |
| C=C(C)[C@@H]1CC[C@]2(C(=O)O)CC[C@]3(C)[C@H](CC[C@@H]4[C@@]5(C)CC[C@H](OC(=O)N6CCNCC6)C(C)(C)[C@@H]5CC[C@]43C)[C@@H]12 | 16.8 | 33.6 | Ratio IC50 [4]: 2 |
| C=C(C)[C@@H]1CC[C@]2(C(=O)O)CC[C@]3(C)[C@H](CC[C@@H]4[C@@]5(C)CC[C@H](OC(=O)N6CCN(C)CC6)C(C)(C)[C@@H]5CC[C@]43C)[C@@H]12 | > 100 | > 100 | – |
| C=C(C)[C@@H]1CC[C@]2(C(=O)O)CC[C@]3(C)[C@H](CC[C@@H]4[C@@]5(C)CC[C@H](OC(=O)N6CCCCC6)C(C)(C)[C@@H]5CC[C@]43C)[C@@H]12 | – | 14.6 | Ratio IC50 (5'-nucleotidase [3]): 5.2; Ratio IC50 [4]: 10.5; IC50 (MIA PaCa-2): > 100 µM; IC50 (MDA-MB-231): > 100 µM |
